In ChEMBL document CHEMBL1201862, “PubChem BioAssay data set” (2004):
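48-hour exposure; five concentrations; linearly interpolated endpoints. GI50 marks 50% less growth.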 Active and inactive are the calls of the source. Cut-off read from the data, not from the text of the source: active = GI50 up to about 1.1 µM and inactive = higher.

Legend:
Test in all cases: NCI tumour cell line growth inhibition, 48 h
UACC-62 = test system: UACC-62
M14 = test system: M14
SF-268 = test system: SF-268
A549 = test system: A549
SK-MEL-28 = test system: SK-MEL-28
K562 = test system: K562
MDA-MB-435 = test system: MDA-MB-435
HOP-62 = test system: HOP-62
HT-29 = test system: HT-29
EKVX = test system: EKVX
SK-OV-3 = test system: SK-OV-3
A498 = test system: A498
SW-620 = test system: SW-620
UACC-257 = test system: UACC-257
RPMI-8226 = test system: RPMI-8226
OVCAR-8 = test system: OVCAR-8
HOP-92 = test system: HOP-92
U-251 = test system: U-251
NCI/ADR-RES = test system: NCI/ADR-RES
OVCAR-4 = test system: OVCAR-4

Measured: GI50

CC1=NC(=Cc2cccc(Cl)c2)C(=O)N1n1c(-c2ccccc2)nc2ccccc2c1=O
inactive: UACC-62 23.6 µM | M14 31.4 µM | SF-268 65.3 µM | A549 35.8 µM | SK-MEL-28 > 10 µM | K562 41.6 µM | MDA-MB-435 41 µM | HOP-62 24.5 µM | HT-29 36 µM | EKVX 21.2 µM | SK-OV-3 37.8 µM | A498 26.4 µM | SW-620 55 µM | UACC-257 28.6 µM | RPMI-8226 30.2 µM | OVCAR-8 43.4 µM

O=C(O)CCCc1nc2c(n1-c1ccccc1)C(=O)c1ccccc1C2=O
inactive: UACC-62 32.8 µM | M14 19.1 µM | HOP-92 49 µM | U-251 > 100 µM | SF-268 38.1 µM | A549 > 100 µM | SK-MEL-28 > 100 µM | K562 69.8 µM | EKVX 62.8 µM | SK-OV-3 > 100 µM | A498 > 100 µM | SW-620 > 100 µM | NCI/ADR-RES > 100 µM | UACC-257 33.2 µM | OVCAR-4 23.9 µM | RPMI-8226 40.7 µM | OVCAR-8 53.5 µM

COC(=O)/C=C(\C)CC/C=C(\C)CCC1OC1(C)C (stereo not given)
inactive: UACC-62 10.1 µM | M14 12.6 µM | HOP-92 11.9 µM | U-251 11.8 µM | A549 12.9 µM | SK-MEL-28 12.3 µM | K562 3.11 µM | HOP-62 15.8 µM | HT-29 14 µM | EKVX 13 µM | SK-OV-3 23.7 µM | A498 14.5 µM | SW-620 13.6 µM | NCI/ADR-RES 13.9 µM | UACC-257 12.5 µM | OVCAR-4 11.8 µM | OVCAR-8 12.9 µM

COc1ccc(C(=O)N2CCN(c3ccc4c(c3)OCC(=O)N4)CC2)cc1OC
inactive: UACC-62 > 100 µM | M14 > 100 µM | HOP-92 > 100 µM | U-251 > 100 µM | SF-268 > 100 µM | A549 > 100 µM | SK-MEL-28 > 100 µM | MDA-MB-435 > 100 µM | HOP-62 > 100 µM | HT-29 > 100 µM | EKVX > 100 µM | SK-OV-3 > 100 µM | SW-620 > 100 µM | NCI/ADR-RES > 100 µM | UACC-257 > 100 µM | OVCAR-4 38.1 µM | RPMI-8226 > 100 µM | OVCAR-8 > 100 µM

NC(=O)CCC(CCC(N)=O)(CCC(N)=O)[N+](=O)[O-]
inactive: UACC-62 > 100 µM | M14 > 100 µM | HOP-92 > 100 µM | U-251 > 100 µM | SF-268 > 100 µM | A549 > 100 µM | MDA-MB-435 > 100 µM | HT-29 > 100 µM | EKVX > 100 µM | SK-OV-3 > 100 µM | SW-620 > 100 µM | NCI/ADR-RES > 100 µM | UACC-257 > 100 µM | RPMI-8226 > 100 µM | OVCAR-8 > 100 µM

CCOC(=O)N/N=C(/N)c1cccc(Br)c1
inactive: UACC-62 > 100 µM | M14 > 100 µM | SF-268 > 100 µM | A549 > 100 µM | K562 > 100 µM | HOP-62 > 100 µM | HT-29 > 100 µM | EKVX 83 µM | SK-OV-3 > 100 µM | NCI/ADR-RES > 100 µM | UACC-257 > 100 µM | OVCAR-4 > 100 µM | OVCAR-8 > 100 µM

COc1c(Br)cc(Br)c(OC)c1-c1[nH]c(Br)c(Br)c1Br
inactive: UACC-62 6.98 µM | M14 7.16 µM | HOP-92 1.82 µM | U-251 10.4 µM | SF-268 3.78 µM | A549 5.04 µM | SK-MEL-28 6.65 µM | K562 4.01 µM | HOP-62 8.22 µM | HT-29 4.17 µM | EKVX 6.93 µM | SK-OV-3 13.6 µM | A498 12.1 µM | SW-620 7.11 µM | UACC-257 4.81 µM | OVCAR-4 4.28 µM | RPMI-8226 3.39 µM | OVCAR-8 8.75 µM

NCCNC(=O)c1cccc2cc3ccccc3nc12
inactive: UACC-62 2.75 µM | M14 3.53 µM | HOP-92 19.6 µM | U-251 2.11 µM | SF-268 1.61 µM | A549 1.27 µM | SK-MEL-28 3 µM | K562 2.15 µM | HOP-62 1.86 µM | HT-29 1.87 µM | EKVX 3.7 µM | SK-OV-3 4.82 µM | A498 1.81 µM | SW-620 1.42 µM | UACC-257 2.82 µM | OVCAR-4 3.75 µM | RPMI-8226 3.85 µM | OVCAR-8 2.08 µM

C[C@H](CCC1SC1(C)C)C1CCC2(C)C3=C(CC[C@]12C)[C@@]1(C)CC[C@H](O)C(C)(C)C1CC3 (stereo not given in full)
inactive: UACC-62 > 100 µM | M14 > 100 µM | HOP-92 > 100 µM | U-251 > 10 µM | SF-268 > 100 µM | A549 > 100 µM | SK-MEL-28 > 100 µM | K562 > 100 µM | HOP-62 > 100 µM | HT-29 > 100 µM | EKVX > 100 µM | SK-OV-3 > 100 µM | A498 > 100 µM | SW-620 > 100 µM | UACC-257 > 100 µM | OVCAR-4 > 100 µM | RPMI-8226 > 100 µM | OVCAR-8 > 100 µM

Cc1c(C(=O)/C=C/c2cccc3ccccc23)[n+]([O-])c2ccccc2[n+]1[O-]
inactive: UACC-62 11.3 µM | M14 13.7 µM | HOP-92 10.1 µM | U-251 14.8 µM | SF-268 14.7 µM | A549 16.4 µM | SK-MEL-28 13 µM | K562 4.72 µM | HOP-62 15.8 µM | HT-29 12.3 µM | EKVX 14.1 µM | SK-OV-3 17.3 µM | A498 16.9 µM | SW-620 10.4 µM | UACC-257 13.5 µM | OVCAR-4 4.47 µM | RPMI-8226 12 µM | OVCAR-8 11 µM

COC(=O)C(C)Oc1ccc(O)cc1 (stereo not given)
inactive: UACC-62 > 100 µM | M14 > 100 µM | HOP-92 > 100 µM | U-251 > 100 µM | SF-268 20.6 µM | A549 63 µM | SK-MEL-28 29.2 µM | K562 > 100 µM | HOP-62 > 100 µM | HT-29 > 100 µM | EKVX > 100 µM | SK-OV-3 > 100 µM | A498 > 100 µM | SW-620 34.9 µM | UACC-257 > 100 µM | OVCAR-4 > 100 µM | RPMI-8226 > 100 µM | OVCAR-8 > 100 µM

COc1ccc(OC)c(N2CC(N)C2=O)c1 (stereo not given)
inactive: UACC-62 > 100 µM | M14 > 100 µM | HOP-92 > 100 µM | U-251 > 100 µM | SF-268 > 100 µM | A549 > 100 µM | SK-MEL-28 > 100 µM | K562 > 100 µM | HOP-62 > 100 µM | HT-29 > 100 µM | EKVX > 100 µM | SK-OV-3 > 100 µM | A498 > 100 µM | SW-620 > 100 µM | UACC-257 > 100 µM | OVCAR-4 > 100 µM | RPMI-8226 > 100 µM | OVCAR-8 > 100 µM

C/C(=N\NS(=O)(=O)c1ccc(C)cc1)c1ccc[n+]([O-])n1
inactive: UACC-62 > 100 µM | M14 39.6 µM | HOP-92 32.3 µM | U-251 > 100 µM | SF-268 > 100 µM | A549 > 100 µM | SK-MEL-28 > 100 µM | K562 26.3 µM | HOP-62 > 100 µM | HT-29 > 100 µM | EKVX > 100 µM | SK-OV-3 > 100 µM | A498 > 100 µM | SW-620 32.1 µM | UACC-257 > 100 µM | OVCAR-4 > 100 µM | RPMI-8226 36.8 µM | OVCAR-8 99.3 µM

CN(C)C(=O)Oc1ccc(C(=S)Nc2ccccc2)cc1Br
inactive: UACC-62 20.3 µM | M14 18.6 µM | U-251 83 µM | SF-268 6.9 µM | A549 33 µM | SK-MEL-28 31.8 µM | K562 18.7 µM | MDA-MB-435 19.5 µM | HOP-62 45.1 µM | HT-29 21.4 µM | EKVX 32.5 µM | SK-OV-3 > 100 µM | SW-620 37.4 µM | NCI/ADR-RES 20.4 µM | UACC-257 24.7 µM | OVCAR-4 19.1 µM | RPMI-8226 22.2 µM | OVCAR-8 17.6 µM

COC(=O)/C1=C/C=C\C[C@@]2(C)CC(c3ccoc3)OC(=O)[C@@H]2CC[C@H]1C (stereo not given in full)
inactive: UACC-62 > 25 µM | M14 > 25 µM | HOP-92 > 25 µM | U-251 > 25 µM | A549 > 25 µM | SK-MEL-28 > 25 µM | K562 > 25 µM | HOP-62 > 25 µM | HT-29 > 25 µM | EKVX > 25 µM | SK-OV-3 > 25 µM | A498 > 25 µM | SW-620 > 25 µM | NCI/ADR-RES > 25 µM | UACC-257 > 25 µM | OVCAR-4 > 25 µM | OVCAR-8 > 25 µM

N#Cc1cccnc1Cl
inactive: UACC-62 > 100 µM | M14 > 100 µM | HOP-92 > 100 µM | U-251 > 100 µM | SF-268 > 100 µM | A549 > 100 µM | SK-MEL-28 > 100 µM | K562 > 100 µM | HOP-62 > 31.6 µM | HT-29 > 100 µM | EKVX > 100 µM | SK-OV-3 > 100 µM | A498 > 100 µM | SW-620 > 100 µM | UACC-257 > 100 µM | OVCAR-4 > 100 µM | RPMI-8226 > 100 µM | OVCAR-8 > 100 µM
